Peptide text beside a SMILES is read from it. * marks the point of attachment. Cbz = O=C(OCc1ccccc1)*; CH2F = FC*
Tests used:
[1] = test system: caspase-3; experiment: Caspase-3 activity assay (Ac-DEVD-pNA) in cytosol extracts; type: cell-based, human; settings: 50 μM pan-caspase inhibitor, 10 μM BMS-345541
[2] = test system: SK-Mel-5 cells; experiment: Nuclear apoptosis (DNA fragmentation) by flow cytometry; type: cell-based, human; settings: 50 μM, 48 h, p<0.05
Method: FIGS. 4A-4H. […] Paraffin-embedded tumor tissues were subjected to H&E staining (FIGS. 4C & D) and DeadEnd Fluorometric TUNEL-assay for detection of apoptosis (FIGS. 4E & F). The TUNEL-positive cells are visualized in green fluorescence in a red (Propidium Iodide) background by fluorescence microscopy. […] After 36 h incubation, cells were collected and fixed with 1% formaldehyde and 70% ice-cold ethanol. The apoptotic cells were examined using TUNEL-assay and analyzed by flow cytometry through measuring fluorescein-12-dUTP at 520 nm. The apoptotic rate is indicated in each box. Data shown are represented one of three independent experiments. […] Cells were fixed and stained with Propidium iodide. Cell fluorescence was measured by flow cytometry and the data were analyzed using DNA content histogram deconvolution software (Multicycle from Phoenix Flow Systems). The percentage of apoptotic cells with fragmented DNA (PI intensity sub-G0/G1) is indicated at each time point. The experiments were repeated twice, in duplicates for each point (total n=4).

[3] = test system: SK-Mel-5 cells; experiment: Western blot / confocal analysis of apoptotic proteins in subcellular fractions; type: cell-based, human; settings: 50 μM with 10 μM BMS-345541, Western blot and confocal microscopy
Method: Subcellular mitochondria and cytoplasm were prepared and subjected to Western blot analysis for Bcl-2 and Bax. […] After exposure, mitochondria were isolated and incubated with 80 μM 3,3′dihexyloxacarbocyanine iodide (DiOC6) at 37° C. for 15 min. Δψm was determined by FACS analysis using 484/530 nm filters within 10 min while gating the forward and sideward scatters on intact mitochondria (FIG. 5C). […] Subcellular extracts were prepared and subjected to Western blot analysis for cytochrome-C and AIF. […] The supernatant was assessed for cytochrome-c release. 200 μM Ca^2+ was used as a positive control.
The cellular caspase-3 activity in samples was detected as described in Materials and Methods. […] Cells were fixed and stained with propidium iodide staining as described in FIG. 4H. The percentage of cell death was measured with flow cytometry. […] Cytosol was extracted and subjected to Western blot analysis for AIF, cytochrome-c (cyto-C) and actin. Actin was used as a loading control protein. […] Ref-1 was used as a nuclear marker protein. All data shown here were from three independent experiments. […] SK-Mel-5 cells were exposed to 10 μM BMS and/or pan-caspase inhibitor (Z-VAD-fmk, 50 μM).
Proteins from cell extracts were separated by 12% SDS-PAGE and electrophoretically transferred to nitrocellulose membranes. Nonspecific binding was blocked with 5% milk in TBST buffer (4 mM Tris base, 100 mM NaCl, pH 7.5, 0.05% Tween), incubated with the indicated primary antibodies with a dilution of 1:1000 at room temperature for 2 h or 4° C. for overnight and then with horseradish peroxidase-conjugated secondary antibody for 1 h. Blots were visualized by enhanced chemiluminescence assay.
The Mitochondria Isolation Kit (Pierce, Rockford, Ill.) was used for isolation of mitochondria from cultured melanoma cells according to the manufacture's instruction for the Reagent-based method. Briefly, cells (2×10^7) were collected, washed with PBS buffer and resuspended in 0.8 ml of Reagent A on ice for 2 min. 10 μl of Reagent B was added and samples were kept on ice, with vortexing very minute for 5 min. After addition of 0.8 ml of Reagent C, the mixture was centrifuged at 700×g for 10 min to remove the cell debris and nuclei. The supernatant was then centrifuged at 3,000×g for 15 min. The pellet (mitochondria) was washed with Reagent C. The purity of mitochondria was determined by Western blotting with β-actin, where β-actin negative preparation were fully to be pure. The supernatant (cytosolic fraction) was further cleared by centrifugation at 12,000×g for 15 min.
Cells were incubated with the anti-AIF polyclonal antibody for 2 h. Cells were washed twice and incubated with the secondary antibody conjugated with FITC for 1 h.

[4] = test system: human melanoma grafts; experiment: Tumor growth in tumor-bearing mice treated with temozolomide; type: in vivo; settings: daily 60 mg/kg orally

| block of BMS-345541 induction of caspase-3 activity [1] | Structure (SMILES) | cells protected from nuclear apoptosis induced by 10 μM BMS-345541 [2] | influence on AIF translocation to nucleus and nuclear condensation [3] | tumor growth inhibition [4] |
| --- | --- | --- | --- | --- |
| 87.2% | COC(=O)C[C@H](NC(=O)[C@H](C)NC(=O)[C@@H](NC(=O)OCc1ccccc1)C(C)C)C(=O)CF [Z-VAD-fmk, reference compound] (Cbz-Val-Ala-Asp(OMe)-CH2F) | 11% | failed to influence |  |
|  | Cn1nnc2c(C(N)=O)ncn2c1=O [temozolomide] |  |  | 81% |

Source: patent publication US20060025419A1, “Imidazoquinoxaline compound for the treatment of melanoma” (priority 2004, published 2006)
